According to US8906897B2, “Antimicrobial agents based on hemin derivatives” (Obschestvo S Ogranichennoi Otvetstvennostiyu …, priority 2009, dated 2014):

System: Candida albicans No. 927
Assay: Antifungal activity, culture growth with pH indicator
Type: cell-based
Parameters: key to Test culture growth at various dilutions of the agent: (−) No growth; the indicator is blue; (±) Weak growth; the indicator is yellow, but the precipitate of grown cells looks as a diffuse spot; (+) Strong growth; the indicator is yellow, and the cell precipitate looks as a compact spot
Summary of the method: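 Museum strains grown one day on glucose-peptone-yeast medium at 32° C; compounds two-fold serially diluted (DMSO ≤5% for insoluble ones) in synthetic medium with Bromocresol Blue, ~10^3 CFU/mL. Growth read as blue-to-yellow shift (pH 5.5→4.5) after 1 h at 32° C with stirring, then 27° C: C. neoformans 2 and 5 days, C. albicans 1 and 4 days.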

SMILES	Test culture growth at various dilutions of the agent (dilution 0: 1 × 10^−4 M)	Test culture growth at various dilutions of the agent (dilution : 2 of 1 × 10^−4 M)	Test culture growth at various dilutions of the agent (dilution : 4 of 1 × 10^−4 M)	Test culture growth at various dilutions of the agent (dilution : 8 of 1 × 10^−4 M)	Test culture growth at various dilutions of the agent (dilution : 16 of 1 × 10^−4 M)	Test culture growth at various dilutions of the agent (dilution : 32 of 1 × 10^−4 M)	Test culture growth at various dilutions of the agent (dilution : 64 of 1 × 10^−4 M)	concentration with practically fungicidal effect (control inoculations from wells on day 1 to 4 post-exposure)
C=CC1=C(C)c2cc3[n-]c(cc4[n-]c(cc5nc(cc1n2)C(C)=C5C=C)c(C)c4CCC(=O)O)c(CCC(=O)O)c3C.[Cl-].[Fe+3] [Hem, hemin]	±	+	+	+	+	+	+	
C=CC1=C(C)c2cc3[n-]c(cc4nc(cc5[n-]c(cc1n2)c(C)c5CCC(=O)N[C@@H](CCC(=O)N[C@@H](CCCNC(=N)N)C(=O)OC)C(=O)N[C@@H](CCCNC(=N)N)C(=O)OC)C(CCC(=O)N[C@@H](CCC(=O)N[C@@H](CCCNC(=N)N)C(=O)OC)C(=O)N[C@@H](CCCNC(=N)N)C(=O)OC)=C4C)c(C)c3C=C.[Cl-].[Fe+3] [Compound XVIII, 6,7-bis[bis(N^α-L-Arginyl Methyl Ester)-L-Glutamyl]-Protohemin IX]	−	−	−	±	±	±	±	about 5×10^−5 M
C=CC1=C(C)c2cc3[n-]c(cc4nc(cc5[n-]c(cc1n2)c(C)c5CCC(=O)NCCO)C(CCC(=O)NCCO)=C4C)c(C)c3C=C.[Cl-].[Fe+3] [Compound XIV, Protohemin IX 6,7-bis-N-(2-Hydroxyethyl)amide]	±	+	+	+	+	+	+	
C=CC1=C(C)c2cc3[n-]c(cc4nc(cc5[n-]c(cc1n2)c(C)c5CCC(=O)N[C@@H](CCCNC(=N)N)C(=O)OC)C(CCC(=O)N[C@@H](CCCNC(=N)N)C(=O)OC)=C4C)c(C)c3C=C.[Cl-].[Fe+3] [VII]	±	+	+	+	+	+	+	
C=CC1=C(C)c2cc3[n-]c(cc4nc(cc5[n-]c(cc1n2)c(C)c5CCC(=O)N[C@@H](CO)C(=O)OC)C(CCC(=O)N[C@@H](CO)C(=O)OC)=C4C)c(C)c3C=C.[Cl-].[Fe+3] [VIII]	±	±	±	+	+	+	+	
